From patent US4636492A, “Inhibition of viral protease activity by peptide halomethyl ketones” (priority 1984, dated 1987)
Numbered stars: 1 amine (or outer) side, 2 acyl side, 3 side chain; on linkers, the order of the positions; unused ones are H or OH. Square brackets hold non-standard residues; d marks the D form. Peptide text beside a SMILES is read from it. * marks the point of attachment. ξ: configuration not given here. Dansyl = CN(C)c1cccc2c(S(=O)(=O)*)cccc12; Suc = O=C(CCC(=O)[*:2])[*:1]; MeOSuc = COC(=O)CCC(=O)*; Cbz = O=C(OCc1ccccc1)*; Boc = CC(C)(C)OC(=O)*; ξL = CC(C)CC(N)C(=O)O; ξV = CC(C)C(N)C(=O)O; CH2Cl = ClC*

Test system: human poliomyelitisvirus type 2
Assay: not given
Type: cell-based
Details: not given

Structure (SMILES)	Activity (protease-inhibiting activity)
CC(C)CC(NC(=O)C(C)NC(=O)CNC(=O)C(Cc1ccccc1)NC(=O)OCc1ccccc1)C(=O)CBr (stereo not drawn) [Example 10, Z--Phe--Gly--Ala--LeuCH2 Br]	+++ (key: -: no activity; +/-: low activity; +: active at 100 μg/mL; ++: active at 50 μg/mL; +++: active at 10 μg/mL; ++++: active at <5 μg/mL)
CC(C)C[C@H](NC(=O)CNC(=O)CNC(=O)[C@H](Cc1ccccc1)NC(=O)OCc1ccccc1)C(=O)CCl [Example 9, Z--Phe--Gly--Gly--LeuCH2 Cl] (Cbz-FGGL-CH2Cl)	+++ (key: -: no activity; +/-: low activity; +: active at 100 μg/mL; ++: active at 50 μg/mL; +++: active at 10 μg/mL; ++++: active at <5 μg/mL)
COC(=O)CCC(=O)N[C@@H](Cc1ccccc1)C(=O)NCC(=O)N[C@@H](CC(C)C)C(=O)N[C@@H](CCC(=O)OC)C(=O)CCl [Example 18, MeOSuc--Phe--Gly--Leu--Glu(OCH3)CH2 Cl] (MeOSuc-FGLE(OMe)-CH2Cl)	++++ (key: -: no activity; +/-: low activity; +: active at 100 μg/mL; ++: active at 50 μg/mL; +++: active at 10 μg/mL; ++++: active at <5 μg/mL)
CC(C)C[C@H](NC(=O)[C@H](C)NC(=O)CNC(=O)[C@H](Cc1ccccc1)Nc1ccc([N+](=O)[O-])cc1[N+](=O)[O-])C(=O)CCl [Example 6, DNP--Phe--Gly--Ala--LeuCH2 Cl]	+++ (key: -: no activity; +/-: low activity; +: active at 100 μg/mL; ++: active at 50 μg/mL; +++: active at 10 μg/mL; ++++: active at <5 μg/mL)
CC(C)C[C@H](NC(=O)[C@H](C)NC(=O)CNC(=O)[C@H](Cc1ccccc1)NC(=O)OCc1ccccc1)C(=O)CCl [Example 1, Z--Phe--Gly--Ala--LeuCH2 Cl] (Cbz-FGAL-CH2Cl)	+++ (key: -: no activity; +/-: low activity; +: active at 100 μg/mL; ++: active at 50 μg/mL; +++: active at 10 μg/mL; ++++: active at <5 μg/mL)
CC(C)C[C@H](NC(=O)[C@H](C)NC(=O)CNC(=O)[C@H](CC(C)C)NC(=O)OCc1ccccc1)C(=O)CCl [Example 8, Z--Leu--Gly--Ala--LeuCH2 Cl] (Cbz-LGAL-CH2Cl)	+++ (key: -: no activity; +/-: low activity; +: active at 100 μg/mL; ++: active at 50 μg/mL; +++: active at 10 μg/mL; ++++: active at <5 μg/mL)
CCC(C)C(NC(=O)C(C)NC(=O)CCC(=O)OC)C(=O)NC(Cc1ccccc1)C(=O)NC(CCC(=O)OC)C(=O)CCl (stereo not drawn) [Example 19, MeOSuc--Ala--Ile--Phe--Glu(OCH3)CH2 Cl] (MeOSuc-AIFE(OMe)-CH2Cl; configuration not given here)	+++ (key: -: no activity; +/-: low activity; +: active at 100 μg/mL; ++: active at 50 μg/mL; +++: active at 10 μg/mL; ++++: active at <5 μg/mL)
CC(C)C[C@H](NC(=O)[C@H](Cc1ccccc1)NC(=O)CNC(=O)[C@H](Cc1ccccc1)NC(=O)OCc1ccccc1)C(=O)CCl [Example 14, Z--Phe--Gly--Phe--LeuCH2 Cl] (Cbz-FGFL-CH2Cl)	++ (key: -: no activity; +/-: low activity; +: active at 100 μg/mL; ++: active at 50 μg/mL; +++: active at 10 μg/mL; ++++: active at <5 μg/mL)
CC(=O)N[C@@H](Cc1ccccc1)C(=O)NCC(=O)N[C@@H](C)C(=O)NC(CC(C)C)C(=O)CCl (stereo partly drawn) [Example 2, acetyl-L-phenylalanyl-L-glycyl-L-alanyl-L-leucyl chloromethyl ketone] (Ac-FGA[ξL]-CH2Cl)	+++ (key: -: no activity; +/-: low activity; +: active at 100 μg/mL; ++: active at 50 μg/mL; +++: active at 10 μg/mL; ++++: active at <5 μg/mL)
CC(C)C[C@H](NC(=O)[C@H](CC(C)C)NC(=O)CNC(=O)[C@H](Cc1ccccc1)NC(=O)OCc1ccccc1)C(=O)CCl [Example 12, N-carbobenzoxy-L-phenylalanyl-L-glycyl-L-leucyl-L-leucine chloromethyl ketone] (Cbz-FGLL-CH2Cl)	++++ (key: -: no activity; +/-: low activity; +: active at 100 μg/mL; ++: active at 50 μg/mL; +++: active at 10 μg/mL; ++++: active at <5 μg/mL)
CC(C)C[C@H](NC(=O)[C@H](C)NC(=O)CNC(=O)[C@H](Cc1ccccc1)NS(=O)(=O)c1cccc2c(N(C)C)cccc12)C(=O)CCl [Example 5, DNS--Phe--Gly--Ala--LeuCH2 Cl] (Dansyl-FGAL-CH2Cl)	+++ (key: -: no activity; +/-: low activity; +: active at 100 μg/mL; ++: active at 50 μg/mL; +++: active at 10 μg/mL; ++++: active at <5 μg/mL)
COC(=O)CCC(=O)N[C@@H](Cc1ccccc1)C(=O)NCC(=O)N[C@@H](C)C(=O)N[C@@H](CC(C)C)C(=O)CCl [Example 4, methoxy-succinyl-L-phenylalanyl-L-glycyl-L-alanyl-L-leucyl chloromethyl ketone] (MeOSuc-FGAL-CH2Cl)	+++ (key: -: no activity; +/-: low activity; +: active at 100 μg/mL; ++: active at 50 μg/mL; +++: active at 10 μg/mL; ++++: active at <5 μg/mL)
CC(C)CC(NC(=O)[C@H](C)NC(=O)[C@H](CC(C)C)NC(=O)[C@H](Cc1ccccc1)NC(=O)OCc1ccccc1)C(=O)CCl (stereo partly drawn) [Example 13, Z--Phe--Leu--Ala--LeuCH2 Cl] (Cbz-FLA[ξL]-CH2Cl)	++ (key: -: no activity; +/-: low activity; +: active at 100 μg/mL; ++: active at 50 μg/mL; +++: active at 10 μg/mL; ++++: active at <5 μg/mL)
C[C@H](NC(=O)CNC(=O)[C@H](Cc1ccccc1)NC(=O)OCc1ccccc1)C(=O)N[C@@H](Cc1ccc(O)cc1)C(=O)CCl [Example 20, Z--Phe--Gly--Ala--TyrCH2 Cl] (Cbz-FGAY-CH2Cl)	++ (key: -: no activity; +/-: low activity; +: active at 100 μg/mL; ++: active at 50 μg/mL; +++: active at 10 μg/mL; ++++: active at <5 μg/mL)
CC[C@H](C)[C@H](NC(=O)[C@H](C)NC(=O)CCC(=O)OC)C(=O)N[C@@H](Cc1ccccc1)C(=O)N[C@@H](CC(C)C)C(=O)CCl [Example 17, MeOSuc--Ala--Ile--Phe--LeuCH2 Cl] (MeOSuc-AIFL-CH2Cl)	+++ (key: -: no activity; +/-: low activity; +: active at 100 μg/mL; ++: active at 50 μg/mL; +++: active at 10 μg/mL; ++++: active at <5 μg/mL)
CC(C)C(NC(=O)[C@H](C)NC(=O)CNC(=O)[C@H](Cc1ccccc1)NC(=O)OCc1ccccc1)C(=O)CCl (stereo partly drawn) [Example 11, Z--Phe--Gly--Ala--ValCH2 Cl] (Cbz-FGA[ξV]-CH2Cl)	++ (key: -: no activity; +/-: low activity; +: active at 100 μg/mL; ++: active at 50 μg/mL; +++: active at 10 μg/mL; ++++: active at <5 μg/mL)
CC(C)C[C@H](NC(=O)[C@@H]1CCCN1C(=O)CNC(=O)[C@H](Cc1ccccc1)NC(=O)OCc1ccccc1)C(=O)CCl [Example 16, Z--Phe--Gly--Pro--LeuCH2 Cl] (Cbz-FGPL-CH2Cl)	++ (key: -: no activity; +/-: low activity; +: active at 100 μg/mL; ++: active at 50 μg/mL; +++: active at 10 μg/mL; ++++: active at <5 μg/mL)
CC(C)C[C@H](NC(=O)[C@H](C)NC(=O)CNC(=O)OC(C)(C)C)C(=O)CCl [Example 7, Boc--Gly--Ala--LeuCH2 Cl] (Boc-Gly-Ala-Leu-CH2Cl)	++ (key: -: no activity; +/-: low activity; +: active at 100 μg/mL; ++: active at 50 μg/mL; +++: active at 10 μg/mL; ++++: active at <5 μg/mL)
CC(C)CC(NC(=O)[C@H](C)NC(=O)CNC(=O)[C@H](Cc1ccccc1)NC(=O)CCC(=O)O)C(=O)CCl (stereo partly drawn) [Example 3, Suc--Phe--Gly--Ala--LeuCH2 Cl] (Suc-FGA[ξL]-CH2Cl)	+++ (key: -: no activity; +/-: low activity; +: active at 100 μg/mL; ++: active at 50 μg/mL; +++: active at 10 μg/mL; ++++: active at <5 μg/mL)
CC(C)C[C@H](NC(=O)[C@H](CO)NC(=O)CNC(=O)[C@H](Cc1ccccc1)NC(=O)OCc1ccccc1)C(=O)CCl [Example 15, Z--Phe--Gly--Ser--LeuCH2 Cl] (Cbz-FGSL-CH2Cl)	++ (key: -: no activity; +/-: low activity; +: active at 100 μg/mL; ++: active at 50 μg/mL; +++: active at 10 μg/mL; ++++: active at <5 μg/mL)

Test system: Human rhinovirus type 1A
Assay: Plaque inhibition assay
Type: cell-based
Details: HeLa cells, concentration giving 90% plaque reduction

Structure (SMILES)	Antiviral activity, as scored by 90% plaque reduction [µg/mL]
CC(C)C[C@H](NC(=O)[C@H](CC(C)C)NC(=O)CNC(=O)[C@H](Cc1ccccc1)NC(=O)OCc1ccccc1)C(=O)CCl [Example 12, N-carbobenzoxy-L-phenylalanyl-L-glycyl-L-leucyl-L-leucine chloromethyl ketone] (Cbz-FGLL-CH2Cl)	1

Molecular target: T1, subtilisin BPN' (Bacillus amyloliquefaciens, UniProt P00782)
T1 sequence (P00782 108-382): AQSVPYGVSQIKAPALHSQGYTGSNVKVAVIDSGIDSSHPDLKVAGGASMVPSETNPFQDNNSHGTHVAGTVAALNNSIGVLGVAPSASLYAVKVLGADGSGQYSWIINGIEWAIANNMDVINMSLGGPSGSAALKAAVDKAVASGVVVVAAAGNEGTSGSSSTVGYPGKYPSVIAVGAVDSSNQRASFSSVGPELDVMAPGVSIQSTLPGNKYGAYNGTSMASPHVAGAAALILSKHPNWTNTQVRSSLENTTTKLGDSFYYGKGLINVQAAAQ
Assay: not given
Details: among a series of peptide chloromethyl ketones; cited from earlier work

Structure (SMILES)	Inhibition of subtilisin BPN' (relative rate)
CC(=O)N[C@@H](Cc1ccccc1)C(=O)NCC(=O)N[C@@H](C)C(=O)NC(CC(C)C)C(=O)CCl (stereo partly drawn) [Example 2, acetyl-L-phenylalanyl-L-glycyl-L-alanyl-L-leucyl chloromethyl ketone] (Ac-FGA[ξL]-CH2Cl)	fastest inhibitor

Molecular target: chymotrypsin (Bos taurus, UniProt P00766)
Assay: not given
Details: inhibitor concentration of 600 μg/mL; cited from earlier work

Structure (SMILES)	Inhibition of chymotrypsin
CC(=O)N[C@@H](CC(C)C)C(=O)N[C@@H](CC(C)C)C(=O)N[C@@H](Cc1ccccc1)C(C)=O [Ac-Leu-Leu-PheCH3]	no inhibition was observed

Test system: human HeLa-O cells
Assay: not given
Details: not given

Structure (SMILES)	Cytotoxicity first detected at a concentration
CC(C)C[C@H](NC(=O)[C@H](CC(C)C)NC(=O)CNC(=O)[C@H](Cc1ccccc1)NC(=O)OCc1ccccc1)C(=O)CCl [Example 12, N-carbobenzoxy-L-phenylalanyl-L-glycyl-L-leucyl-L-leucine chloromethyl ketone] (Cbz-FGLL-CH2Cl)	about 15 μg/mL
